The experiment concerns the target T1, MAGE-A11:PCF11 interaction (GST-MAGE-A11 MHD and FAM-PCF11_4) (Homo sapiens, UniProt P43364).
T1 construct: GST-MAGE-A11 MHD (human MAGE-A11 MHD amino acid 218-429); made in house; host or cells: E. coli BL21(DE3)
T1 sequence (P43364 218-429): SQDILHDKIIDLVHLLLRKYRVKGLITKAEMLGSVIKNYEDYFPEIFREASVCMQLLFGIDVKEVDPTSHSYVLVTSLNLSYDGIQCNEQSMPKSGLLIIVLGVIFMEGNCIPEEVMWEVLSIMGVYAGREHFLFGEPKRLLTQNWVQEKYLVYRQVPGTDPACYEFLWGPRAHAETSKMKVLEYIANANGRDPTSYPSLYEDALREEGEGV
Put plainly: TR-FRET dose response test of compounds for disruption of MAGE-A11:PCF11 binding. The method, then:
The TR-FRET assay buffer with a formula of 50 mM Tris pH 7.5, 20 mM MgCl2, 0.1 mg/ml BSA and 1 mM DTT was freshly prepared before each experiment. All TR-FRET assays were performed in black 384-well plates with 20 µl/well assay volume in the TR-FRET assay buffer at room temperature (~25 °C). All peptides or compounds were solubilized in DMSO. To test the competitive activity of peptides or compounds against the interaction between GST-MAGE-A11 MHD and FAM-PCF11_4 peptide, 10 µl/well peptide or compound at specified concentration was dispensed into a black 384-well low volume plate, followed by 5 µl/well FAM-PCF11_4 (800 nM), 5 µl/well Tb-anti-GST (20 nM), and GST-MAGE-A11 MHD (20 nM). The assay components in each well was then mixed by shaking the plate on an IKA MTS 2/4 digital microtiter plate shaker (IKA Works; Wilmington, NC, USA) for 1 min. The plate was further centrifuged in an Eppendorf 5810 centrifuge with an A-4-62 swing-bucket rotor (Eppendorf AG, Hamburg, Germany) at 201 g for 30 s. The plate was then incubated for 90 min with a lid to avoid light exposure to the assay components. After incubation, the fluorescent emission signals at 520 nm and 490 nm channels of individual wells were measured with a PHERAstar FS plate reader (BMG Labtech; Durham, NC, USA) by using a 340 nm excitation filter, 100 µs delay time, and 200 µs integration time. The TR-FRET fluorescence emission ratio (TR-FRET signal) for each well was presented as 10,000 × 520 nm/490 nm, which was used directly for curve fitting, or further converted to %Inhibition based on the respective positive and negative controls. The graphic software GraphPad Prism 4.81 (GraphPad Software; La Jolla, CA, USA) was used to generate curves and derive IC50 values of tested peptides or compounds, if applicable.
TR-FRET screen for identifying MAGE-A11 small molecule inhibitors was performed as follows. The primary one-concentration screening and subsequent 10 or 20-concentration dose-response tests were accomplished with an automated High Throughput Screening system (HighRes Biosolutions, Beverly, MA)[30]. In the primary screening, 15 µl/well FAM-PCF11_4 (267 nM) was first dispensed with a Multidrop Combi Reagent Dispenser (Thermo Fisher Scientific, Waltham, MA) to black 384-well low-volume assay plates. The plates were spun down with a Velocity11 VSpin microplate centrifuge (Agilent Technologies, Santa Clara, CA). In total, 30 nl/well of 10 mM compound/DMSO solutions, or DMSO alone, were transferred from compound plates (the St. Jude FDA drug and bioactive library, Drug-like library and Lead-like library) or a control plate to the assay plates with a Pin Tool (V&P Scientific, San Diego, CA). The compounds were arrayed in columns 3–12 and columns 15–24 of compound plates. The controls were arrayed in columns 1, 2, 13, and 14 of a compound plate. In all, 5 µl/well Tb-anti-GST (20 nM) and GST-MAGE-A11 (20 nM) or 5 µl/well Tb-anti-GST (20 nM) alone was then dispensed to selected wells with a Multidrop Combi Reagent Dispenser. The final assay volume was 20 µl/well. The final DMSO concentration was 0.25% (v/v) (0.1% (v/v) from the FAM-PCF11_4 DMSO stock solution and 0.15% (v/v) from the compound-DMSO solution or the DMSO for the control wells). The final tested compound concentration was 15 µM. The final FAM-PCF11_4 concentration was 200 nM and the final Tb-anti-GST concentration was 5 nM. The final GST-MAGE-A11 concentration was 5 nM except for those selected positive control wells in which GST-MAGE-A11 was not presented. The plates were then shaken with a big bear shaker (Big Bear Automation, Santa Clara, California) and spun down with the Velocity11 VSpin microplate centrifuge for 20 s. The plates were then incubated at room temperature in a Liconic incubator (Liconic US, Woburn, MA) for 90 min. The TR-FRET signals for individual wells were measured with a PHERAstar FS plate reader. The %Inhibition of each tested inhibitor was calculated by using Eq. 1.
(In general: Time-resolved FRET reads energy transfer from a long-lived donor to a nearby acceptor.)

Setting [1] is: Dose response TR-FRET screening of nine scaffold groups against MAGE-A11:PCF11, read-out: consensus IC50.
Where [2] appears, read: Supplementary Data 3, 59 quinoline compounds, read-out: TR-FRET IC50.
The mark [3] stands for this setting: Supplementary Data 4, read-out: TR-FRET, IC50.

Like-named read-outs stand apart in the source and are kept apart here. Bounds are passed on as bounds.

Regarding `COc1ccc(F)cc1CNCCCNc1ccnc2cc(Oc3ccc(C(C)(C)C)cc3)ccc12` [SJ000311237-1], the IC50 under setting [1] is 6.29 µM.
For `COc1cccc(CNCCCNc2ccnc3cc(-c4ccc(F)cc4)ccc23)c1O` [SJ000311239-1], the IC50 under setting [1] is 33.3 µM.
`Fc1ccc(-c2ccc3c(NCCCNCc4cccc5c4OCO5)ccnc3c2)cc1` [SJ000311240-1]: the IC50 under setting [1] came to 25 µM.
For the compound `COc1ccc(F)cc1CNCCCNc1ccnc2cc(-c3ccc(F)cc3)ccc12` [SJ000311241-1], the IC50 under setting [1] turned out to be 38.9 µM.
As to `COc1cccc(CNCCCNc2ccnc3cc(Cc4ccc(F)cc4)ccc23)c1O` [SJ000311243-1], under setting [1], the half-maximal inhibitory concentration (IC50) came out at 43.6 µM.
`Fc1ccc(Cc2ccc3c(NCCCNCc4cccc5c4OCO5)ccnc3c2)cc1` [SJ000311244-1]: under setting [1], the IC50 turned out to be 42.3 µM.
With `COc1ccc(F)cc1CNCCCNc1ccnc2cc(Cc3ccc(F)cc3)ccc12` [SJ000311245-1], the IC50 under setting [1] was determined as 35.1 µM.
Regarding `CC(C)CCc1ccc2c(NCCCNCc3cccc4c3OCO4)ccnc2c1` [SJ000311248-1], the IC50 under setting [1] was 27.7 µM.
As for `c1coc(CNCCCNc2ccnc3cc(CC4CCCCC4)ccc23)c1` [SJ000311250-1, C(CNCc1occc1)CNc2ccnc3cc(CC4CCCCC4)ccc23], the IC50 under setting [2] is 54.9 µM.
As to `COc1cccc(CNCCCNc2ccnc3cc(CC4CCCCC4)ccc23)c1O` [SJ000311251-1], under setting [1], the IC50 was 29.2 µM.
For the compound `c1cc(CNCCCNc2ccnc3cc(CC4CCCCC4)ccc23)c2c(c1)OCO2` [SJ000311252-1], the IC50 under setting [1] was 16 µM.
Consider `COc1ccc(F)cc1CNCCCNc1ccnc2cc(CC3CCCCC3)ccc12` [SJ000311253-1], for which the IC50 under setting [1] was 26.3 µM.
As for `COc1cccc(CNCCCNc2ccnc3cc(CCc4ccccc4)ccc23)c1O` [SJ000311255-1], under setting [1], the half-maximal inhibitory concentration (IC50) was 26.5 µM.
`COc1ccc(F)cc1CNCCCNc1ccnc2cc(CCc3ccccc3)ccc12` [SJ000311256-1]: the IC50 under setting [1] was determined as 37.1 µM.
For `c1ccc(CCc2ccc3c(NCCCNCc4cccc5c4OCO5)ccnc3c2)cc1` [SJ000311257-1], under setting [1], the IC50 was 62.3 µM.
Turning to `COc1cccc(CNCCCNc2ccnc3cc(CC(C)C)ccc23)c1O` [SJ000311259-1], the IC50 under setting [1] came out at 68.5 µM.
As for `c1coc(CNCCCNc2ccnc3cc(C4CCCCC4)ccc23)c1` [SJ000311262-1, C(CNCc1occc1)CNc2ccnc3cc(ccc23)C4CCCCC4], the IC50 under setting [2] was above 70 µM.
Consider `COc1cccc(CNCCCNc2ccnc3cc(C4CCCCC4)ccc23)c1O` [SJ000311263-1], for which, under setting [1], the IC50 stood at 32.4 µM.
For `c1cc(CNCCCNc2ccnc3cc(C4CCCCC4)ccc23)c2c(c1)OCO2` [SJ000311264-1], the IC50 under setting [1] is 23.7 µM.
In the case of `COc1ccc(F)cc1CNCCCNc1ccnc2cc(C3CCCCC3)ccc12` [SJ000311265-1], under setting [1], the half-inhibitory concentration (IC50) was 24.2 µM.
On to `CCC(CC)c1ccc2c(NCCCNCc3cccc(OC)c3O)ccnc2c1` [SJ000311267-1], for which, under setting [1], the IC50 amounted to 9.95 µM.
As to `CCC(CC)c1ccc2c(NCCCNCc3cccc4c3OCO4)ccnc2c1` [SJ000311268-1], the IC50 under setting [1] amounted to 28.9 µM.
On to `CCC(CC)c1ccc2c(NCCCNCc3cc(F)ccc3OC)ccnc2c1` [SJ000311269-1], for which, under setting [1], the IC50 is 43 µM.
On the same count and under the same terms, under `FC(F)(F)c1cc(-c2ccc3c(NCCCNCc4cccc5c4OCO5)ccnc3c2)cc(C(F)(F)F)c1` [SJ000311272-1] stands 9.02 µM; under `COc1ccc(F)cc1CNCCCNc1ccnc2cc(-c3cc(C(F)(F)F)cc(C(F)(F)F)c3)ccc12` [SJ000311273-1], 7.69 µM.
Turning to `c1coc(CNCCCNc2ccnc3cc(-c4cccc5ccccc45)ccc23)c1` [SJ000311274-1, C(CNCc1occc1)CNc2ccnc3cc(ccc23)c4cccc5ccccc45], the IC50 under setting [2] is above 70 µM.
As to `COc1cccc(CNCCCNc2ccnc3cc(-c4cccc5ccccc45)ccc23)c1O` [SJ000311275-1], under setting [1], the 50% inhibitory concentration (IC50) is 16 µM.
For the compound `c1cc(CNCCCNc2ccnc3cc(-c4cccc5ccccc45)ccc23)c2c(c1)OCO2` [SJ000311276-1], the IC50 under setting [1] came out at 31.2 µM.
On to `COc1ccc(F)cc1CNCCCNc1ccnc2cc(-c3cccc4ccccc34)ccc12` [SJ000311277-1], for which the IC50 under setting [1] is 10.3 µM.
For the compound `FC(F)(F)c1ccc(-c2ccc3c(NCCCNCc4ccco4)ccnc3c2)cc1` [SJ000311278-1, FC(F)(F)c1ccc(cc1)c2ccc3c(NCCCNCc4occc4)ccnc3c2], the IC50 under setting [2] was 22.7 µM.
Take `COc1cccc(CNCCCNc2ccnc3cc(-c4ccc(C(F)(F)F)cc4)ccc23)c1O` [SJ000311279-1]: the IC50 under setting [1] turned out to be 9.52 µM.
Consider `FC(F)(F)c1ccc(-c2ccc3c(NCCCNCc4cccc5c4OCO5)ccnc3c2)cc1` [SJ000311280-01], for which the IC50 under setting [3] is 4.07 µM.
For the compound `FC(F)(F)c1ccc(-c2ccc3c(NCCCNCc4cccc5c4OCO5)ccnc3c2)cc1` [SJ000311280-1], the IC50 under setting [1] was 15.7 µM.
On to `COc1ccc(F)cc1CNCCCNc1ccnc2cc(-c3ccc(C(F)(F)F)cc3)ccc12` [SJ000311281-01], for which, under setting [3], the IC50 turned out to be 5.58 µM.
Turning to `COc1ccc(F)cc1CNCCCNc1ccnc2cc(-c3ccc(C(F)(F)F)cc3)ccc12` [SJ000311281-1], under setting [1], the IC50 is 13.4 µM.
Take `COc1cccc(CNCCCNc2ccnc3cc(-c4ccccc4)ccc23)c1O` [SJ000311283-1]: the IC50 under setting [1] came to 24.1 µM.
As to `c1ccc(-c2ccc3c(NCCCNCc4cccc5c4OCO5)ccnc3c2)cc1` [SJ000311284-01], the IC50 under setting [3] amounted to 20.6 µM.
Turning to `c1ccc(-c2ccc3c(NCCCNCc4cccc5c4OCO5)ccnc3c2)cc1` [SJ000311284-1], under setting [1], the IC50 stood at 22.2 µM.
For `COc1ccc(F)cc1CNCCCNc1ccnc2cc(-c3ccccc3)ccc12` [SJ000311285-1], the 50% inhibitory concentration (IC50) under setting [1] was determined as 28.2 µM.
Still for that read-out and setting: under `COc1cccc(CNCCCNc2ccnc3cc(-c4ccc(C(C)(C)C)cc4)ccc23)c1O` [SJ000311287-1] stands 4.67 µM.
The same measure, in the same setting: the same measure for `CC(C)(C)c1ccc(-c2ccc3c(NCCCNCc4cccc5c4OCO5)ccnc3c2)cc1` [SJ000311288-1]: 6.87 µM.
For `COc1ccc(F)cc1CNCCCNc1ccnc2cc(-c3ccc(C(C)(C)C)cc3)ccc12` [SJ000311289-1], under setting [1], the IC50 came out at 4.62 µM.
On to `c1coc(CNCCCNc2ccnc3cc(-c4ccc5c(c4)OCO5)ccc23)c1` [SJ000311290-1, C(CNCc1occc1)CNc2ccnc3cc(ccc23)c4ccc5OCOc5c4], for which the IC50 under setting [2] was above 70 µM.
On to `COc1cccc(CNCCCNc2ccnc3cc(-c4ccc5c(c4)OCO5)ccc23)c1O` [SJ000311291-1], for which the IC50 under setting [1] turned out to be 24.6 µM.
On the same count and under the same terms, under `c1cc(CNCCCNc2ccnc3cc(-c4ccc5c(c4)OCO5)ccc23)c2c(c1)OCO2` [SJ000311292-1] stands 30.5 µM; under `COc1ccc(F)cc1CNCCCNc1ccnc2cc(-c3ccc4c(c3)OCO4)ccc12` [SJ000311293-1], 29.9 µM.
For the compound `COc1cccc(CNCCCNc2ccnc3cc(Cc4cccc(C(F)(F)F)c4)ccc23)c1O` [SJ000311299-1], under setting [1], the IC50 was determined as 27.5 µM.

Usually IC50 stands for the concentration that gives 50% inhibition.

The record behind these values is article PMC7529893, “Structural basis for substrate recognition and chemical inhibition of oncogenic MAGE ubiquitin ligases” (Nature Communications, 2020).
